Results taken from US10858684B2, “Mutant microorganisms resistant to lactose killing” (Inbiose N.V., priority 2014, dated 2020).
Read-outs that look alike come from different tables or passages of the source.

Test system: E. coli lactose permease expression cassette mutant strains
Experiment: Chloramphenicol resistance / MIC of strains with lactose permease translationally coupled to chloramphenicol resistance gene
Assay type: cell-based, Escherichia coli
Settings: for MIC: Escherichia coli
Excerpt: Two strains were constructed in which lactose permease was knockout out from the genome. In both strains a pSC101 plasmid containing a kanamycin resistance gene was transformed, with the difference that one of the plasmids contained a constitutively expressed lactose permease as described in Example 1 and 2, resulting in a reference strain MG1655ΔlacY pSC101_kan and the lacY_cat translational coupled strain MG1655ΔlacY pSC101_kan_lacYsynthetic_cat as described in Example 4 and FIG. 5. Both strains were grown in a minimal medium as described above at different chloramphenicol concentrations (between 0 and 30 mg/l).
This method is however limited by the expression of the beta galactosidase gene which becomes the rate limiting step for growth. Therefore, the expression of the lactose permease gene was measured via the above described translational coupling system described above. The minimal inhibition concentration (MIC) for chloramphenicol is indicative for the expression of the lactose permease gene and this was determined for each of the cassettes. The lowest MIC that still resulted into the same growth rate compared to the wild type was used as an indicator for the expression of the wild type lactose permease expression.

With `O=C(N[C@H](CO)[C@H](O)c1ccc([N+](=O)[O-])cc1)C(Cl)Cl` [chloramphenicol] the MIC (read-out: minimal inhibition concentration (MIC), cassettes with the lowest MIC that have the same growth rate as the wild type strain) was ~20 µg/mL, the MIC (read-out: minimal inhibition concentration (MIC), mutant strains with a slightly lower growth rate) was 15 to 20 µg/mL and the MIC (read-out: minimal inhibition concentration (MIC), mutant strains with equal or higher growth rate) was 20 to 80 µg/mL. The “growth inhibition of reference strain MG1655ΔlacY pSC101_kan versus lacY_cat coupled strain” value (chloramphenicol 0 to 30 mg/l, minimal medium, 48 and 92 hours) was “inhibited at a lower chloramphenicol concentration than the mutant lacY_cat translational coupled strain”.
